Data from patent publication US12643882B2, “Inhibitors of human respiratory syncytial virus and metapneumovirus” (priority 2022, dated 2026).
Like-named read-outs stand apart in the source and are kept apart here.

What was measured:
RSV-A2-GFP virus = experiment: microbe, parasite or virus in culture; format: cell-based, Human Respiratory Syncytial Virus
Protocol: To set up the assay, ARF vials were thawed in a 37° C. water bath and a control compound was resuspended in assay media DMEM (Dulbecco's Modified Eagle Medium) containing 2% FBS, 100 U/ml Penicillin-Streptomycin.
GFP sequence was derived from pJTI™ R4 Dest CMV N-EmGFP pA Vector (Invitrogen) and was cloned into the intergenic sequence between wild-type RSV-A2 P and M genes using standard recombineering techniques. Recombinant RSV-A2-GFP was propagated in Hep2 cells (human cells contain HeLa marker chromosomes and were derived via HeLa contamination, ATCC CCL-23) with a Multiplicity of Infection (MOI) of 0.1. Virus was harvested 3 days after infection by collecting all culture material and then freeze-thawing the mixture for 5 min. Working virus stocks were generated by thawing frozen viral cultures in 37° C. water bath, which were centrifuged at 218 g for 15 min at 4° C. 1/10 of 10×SPG (Biological Industries 06-3061-01-5A) were added and then mixed. The supernatant was aliquoted, frozen in liquid nitrogen, and then transferred to a −80° C. freezer for storage. Virus titer was determined by automated plaque assay in HEp-2 cells following methods described previously (Wen Z. et al.; 2019).
Calu-1 cells were purchased from ATCC (Cat #HTB-54) and were expanded in growth media (DMEM containing 10% FBS, 100 U/ml Penicillin-Streptomycin). To make ARF, cell culture media was removed and discarded and the cell layer was briefly rinsed with PBS to remove serum. 2.5 mL of TrypLE Express solution were added and cells incubated until dislodged, to which growth media was added and the cells were resuspended by gentle pipetting. Cells were counted for concentration and viability as determined by ViCell. Cells were centrifuged at RT, 300 g for 5 minutes to pellet cells. The supernatant was gently aspirated and the pellet was flicked to loosen cells. Cells were resuspended in an appropriate volume of freezing medium (DMEM containing 10% DMSO, 10% FBS, 100 U/ml Penicillin-Streptomycin) to achieve a concentration of 5×10^6 cells/mL. 1 mL aliquots of the cell suspension were transferred to freezing vials. The vials were put into an upright container in a −80° C. freezer overnight before transferring vials to liquid nitrogen for storage.
Assay ready freezedown (ARF, generation described separately) Calu-1 cells (ATCC HTB-54) were used. Compound plates were prepared by dispensing compounds dissolved in DMSO into the wells of a 384 well Corning® 3985 plate with an ECHO acoustic dispenser and compounds were tested in 10-point serial 3-fold dilution. […] To set up the assay, ARF vial(s) were thawed in a 37° C. water bath and were then resuspended into assay media (DMEM containing 2% FBS, 100 U/ml Penicillin-Streptomycin). Cells were counted using default parameters on ViCell and diluted to 20,000 cells/mL in assay media. RSV-A2-GFP virus was added to cells at 24,000 pfu/ml (MOI=1.2) and mixed by gentle inversion. 10 μL/well of 100% DMSO was dispensed as CellTiter-Glo (CTG) assay Max_E controls wells. The cells were dispensed at 50 μL/well using Bravo with 50 μL filtered tips into compound plates. Plates were covered with MicroClime lids, loaded with 7.5 mL of assay media to minimize evaporation, and were incubated at 37° C. and 5% CO2 for 96 hrs. Following incubation, distinct, GFP-expressing cells were counted using an Acumen imaging system with appropriate settings. A same-well CTG assay was performed by adding 10 μL/well reconstituted CellTiter-Glo reagent (Promega G7573) and plates were read on PerkinElmer Envision according to manufacturer's instructions. Raw data were loaded and analyzed in ActivityBase. Antiviral IC50 and cytotoxicity CC50 values were determined using a 4 parameter logistic fit based on the Levenberg-Marquardt algorithm. Model: 205-4 Parameter Logistic.

hMPV-GFP virus = experiment: microbe, parasite or virus in culture; format: cell-based, human metapneumovirus
Protocol: GFP expressing rgHMPV #3 p3 was generated in Dr. Buchholz's lab (Biacchesi S. et al., J Virol. 2007 June; 81(11): 6057-6067) and propagated in VERO cells (ATCC Cat #CCL-81) with a Multiplicity of Infection (MOI) of 0.1. Virus was harvested 4 days after infection by collecting cultured material and was freeze-thaw cycled in liquid nitrogen twice. Working virus stocks were generated from thawing frozen samples in 37° C. water bath, which were centrifuged at 218 g for 15 min at 4° C. 1/10 of 10×SPG (Biological Industries 06-3061-01-5A) were added and then mixed. The supernatant was aliquoted, frozen in liquid nitrogen, and then transferred to a −80° C. freezer for storage. Virus titer was determined by performing titration test in 96-well plates and calculate approximate virus titer using GFP event/well data.
Compound plates were prepared by dispensing compounds dissolved in DMSO into wells of a 384 well Corning 3985 polystyrene flat clear bottom optical imaging microplate (202.5 nL/well) using an ECHO acoustic dispenser. Each compound was tested in 10-point serial 3-fold dilution (typical final concentrations: 40,300 nM-2 nM). […] Continuous culture of VERO cells was maintained in complete culture media (OptiMEM supplemented with 2 mM GlutaMAX™ and 100 U/ml Penicillin-Streptomycin). To set up the assay, VERO cells were trypsinized with 0.25% Trypsin-EDTA until cells were dislodged, then cells were re-suspended with 1 mL FBS. Cells were spun down at 300 g for 5 minutes and cells were washed twice with culture media and counted using default parameters on ViCell. Cells were then diluted to 100,000 cells/mL (5,000 cells/50 μL) in complete culture media+TrypLE Select (80 μL/mL). hMPV-GFP virus was added to cells at 125,000 pfu/mL (MOI=1.25) and were mixed by gentle inversion. 10 μL/well of 100% DMSO was dispensed to CellTiter-Glo (CTG) assay Max_E controls wells. Cells were dispensed at 50 μL/well using Bravo and 50 μL filtered tips into compound plates. Plates were covered with MicroClime lids and loaded with 7.5 mL of assay media to minimize evaporation. Plates were lightly shaken for 10 minutes at room temperature and then incubated at 37° C. and 5% CO2 for 48 hrs. Following incubation, distinct GFP-expressing cells were counted using an Acumen imaging system with appropriate settings. A same-well CTG assay was performed by adding 10 μL/well reconstituted CellTiter-Glo reagent (Promega G7573) and plates were read on PerkinElmer Envision according to manufacturer's instructions. Raw data were loaded and analyzed in ActivityBase. Antiviral IC50 and cytotoxicity CC50 values were determined using a 4 parameter logistic fit based on the Levenberg-Marquardt algorithm. Model: 205-4 Parameter Logistic. • References: Wen Z, Citron M, Bett A J, Espeseth A S, Vora K A, Zhang L, DiStefano D J. Development and application of a higher throughput RSV plaque assay by immunofluorescent imaging. J Virol Methods. 2019 January; 263:88-95. doi: 10.1016/j.jviromet.2018.10.022. Epub 2018 Oct. 28. PMD: 30381239. • Biacchesi S, Murphy B R, Collins P L, Buchholz U J. Frequent frameshift and point mutations in the SH gene of human metapneumovirus passaged in vitro. J Virol. 2007 June; 81(11):6057-67. doi: 10.1128/JVL.00128-07. Epub 2007 Mar. 21. PMID: 17376897; PMCID: MC 1900297. Assay Data

[1] = human respiratory syncytial virus, Calu-1, 96 h, read-out: RSV EC50, Calu-1 cells infected with RSV-A2-GFP, 96 hrs, GFP-expressing cells counted
[2] = read-out: hMPV EC50, VERO cells infected with hMPV-GFP, 48 hrs, GFP-expressing cells counted
[3] = human metapneumovirus, Vero, 48 h, read-out: hMPV EC50, VERO cells infected with hMPV-GFP, 48 hrs, GFP-expressing cells counted
[4] = Calu-1 cells infected with RSV-A2-GFP, 96 hrs, GFP-expressing cells counted, read-out: RSV EC50
[5] = VERO cells infected with hMPV-GFP, 48 hrs, GFP-expressing cells counted, read-out: hMPV EC50
[6] = read-out: RSV EC50, Calu-1 cells infected with RSV-A2-GFP, 96 hrs, GFP-expressing cells counted

Row | SMILES | EC50 (RSV-A2-GFP virus; [1]) [nM] | EC50 (hMPV-GFP virus; [2]) [nM] | EC50 (hMPV-GFP virus; [3]) [nM] | EC50 (RSV-A2-GFP virus; [6]) [nM] | further results
1 | Cc1nn(-c2ncccn2)cc1C(=O)N1C[C@H]2[C@H](Oc3cc(C(C)(C)N)cc(-c4ccc(F)cc4F)n3)[C@@]2(C)C1 (single isomer, unassigned; enantiomer 1) [Example 109A] | < 10 | > 100 |  |  | 
2 | Cn1nc(-c2ncccn2)cc1C(=O)N1C[C@H]2[C@H](Oc3cc(C(C)(C)N)cc(-c4ccc(C(F)(F)F)cc4)n3)[C@@]2(C)C1 (single isomer, unassigned; enantiomer 1) [Example 110A] | < 10 | 10 to 100 |  |  | 
3 | Cc1nn(-c2ncccn2)cc1C(=O)N1C[C@H]2[C@H](Oc3cc(C(C)(C)N)cc(-c4ccc(C(F)(F)F)cc4)n3)[C@@]2(C)C1 (single isomer, unassigned; enantiomer 1) [Example 111A] | < 10 | > 100 |  |  | 
4 | Cc1nn(-c2ncccn2)cc1C(=O)N1C[C@@H]2[C@H](C1)[C@H]2Oc1cc(C2(C)CCCN2)cc(-c2ccc(F)cc2)n1 (single isomer, unassigned; enantiomer 1) [Example 112] | < 10 |  | > 100 |  | 
5 | Cc1nc(-c2ncccn2)sc1C(=O)N1C[C@@H]2[C@H](C1)[C@H]2Oc1cc(C(C)(N)CO)cc(-c2ccc(F)cc2)n1 (single isomer, unassigned; enantiomer 1) [Example 113A] | < 10 |  | > 100 |  | 
6 | CCC(C)(N)c1cc(OC2[C@H]3CN(C(=O)c4cn(-c5ncccn5)nc4C)C[C@@H]23)nc(-c2ccc(F)cc2)c1 (single isomer, unassigned; enantiomer 1) [Example 116A] |  |  |  |  | EC50 (RSV-A2-GFP virus; [4]): < 10 nM; EC50 (hMPV-GFP virus; [5]): > 100 nM
7 | CCc1nc(-c2ncccn2)sc1C(=O)N1C[C@@H]2[C@H]1C[C@H]2Oc1cc(C(C)(C)N)cc(-c2ccc(F)cc2)n1 (single isomer, unassigned; enantiomer 2) [Example 3] | < 10 |  | > 100 |  | 
8 | Cn1nc(-c2ncccn2)cc1C(=O)N1C[C@@H]2[C@H]1C[C@H]2Oc1cc(C(C)(C)N)cc(-c2ccc(F)cc2)n1 (single isomer, unassigned; enantiomer 2) [Example 4] | 10 to 100 |  | > 100 |  | 
9 | CCc1nn(-c2ncccn2)cc1C(=O)N1C[C@@H]2[C@H]1C[C@H]2Oc1cc(C(C)(C)N)cc(-c2ccc(F)cc2)n1 (single isomer, unassigned; enantiomer 2) [Example 5] | < 10 |  | > 100 |  | 
10 | CC(C)(N)c1cc(O[C@@H]2C[C@@H]3[C@H]2CN3C(=O)c2cn(-c3ncccn3)nc2C2CC2)nc(-c2ccc(F)cc2)c1 (single isomer, unassigned; enantiomer 2) [Example 6] | < 10 |  | > 100 |  | 
11 | CC(O)c1nn(-c2ncccn2)cc1C(=O)N1C[C@@H]2C(Oc3cc(C(C)(C)N)cc(-c4ccc(F)c(F)c4)n3)[C@@H]2C1 (single isomer, unassigned; enantiomer 2) [Example 96B] |  |  |  |  | EC50 (RSV-A2-GFP virus; [4]): < 10 nM; EC50 (hMPV-GFP virus; [5]): > 100 nM
12 | Cc1nc(-c2ncccn2)sc1C(=O)N1C[C@H]2[C@H](Oc3cc(C(C)(C)N)cc(-c4ccc(F)cc4)n3)[C@@]2(C)C1 (single isomer, unassigned; enantiomer 2) [Example 103B] | < 10 |  | 10 to 100 |  | 
13 | Cn1nc(-c2ncccn2)cc1C(=O)N1C[C@H]2[C@H](Oc3cc(C(C)(C)N)cc(-c4ccc(F)cc4)n3)[C@@]2(C)C1 (single isomer, unassigned; enantiomer 2) [Example 104B] |  | > 100 |  | < 10 | 
14 | Cn1nc(-c2ncccn2)cc1C(=O)N1C[C@H]2[C@H](Oc3cc(C(C)(C)N)cc(-c4ccc(F)c(F)c4)n3)[C@@]2(C)C1 (single isomer, unassigned; enantiomer 2) [Example 105B] |  | 10 to 100 |  | < 10 | 
15 | Cc1nn(-c2ncccn2)cc1C(=O)N1C[C@H]2[C@H](Oc3cc(C(C)(C)N)cc(-c4ccc(F)c(F)c4)n3)[C@@]2(C)C1 (single isomer, unassigned; enantiomer 2) [Example 106B] |  | 10 to 100 |  | < 10 | 
16 | Cc1nn(-c2ncccn2)cc1C(=O)N1C[C@H]2[C@H](Oc3cc(C(C)(C)N)cc(-c4ccc(F)cc4)n3)[C@@]2(C)C1 (single isomer, unassigned; enantiomer 2) [Example 107B] |  | > 100 |  | < 10 | 
17 | Cn1nc(-c2ncccn2)cc1C(=O)N1C[C@H]2[C@H](Oc3cc(C(C)(C)N)cc(-c4ccc(F)cc4F)n3)[C@@]2(C)C1 (single isomer, unassigned; enantiomer 2) [Example 108B] |  | > 100 |  | < 10 | 
18 | Cc1nn(-c2ncccn2)cc1C(=O)N1C[C@H]2[C@H](Oc3cc(C(C)(C)N)cc(-c4ccc(F)cc4F)n3)[C@@]2(C)C1 (single isomer, unassigned; enantiomer 2) [Example 109B] |  | 10 to 100 |  | < 10 | 
